pIC50: −log10 of the molar value. Like-named read-outs stand apart in the source and are kept apart here.
Legend:
[1] = molecular target: T1, purified recombinant human LDHA protein (Homo sapiens, UniProt P00338); test: In vitro LDHA inhibitor activity (NADH fluorescence decrease); format: biochemical
T1 construct: purchased Abcam
Description: (§1) The in vitro evaluation of the LDHA inhibitor activities of the synthesized compounds was determined by the NADH intensity decrease through oxidation in a solution of HEPES-K^+, NADH, and pyruvate at a pH = 7.2. The NADH oxidation fluorescence intensity was measured using a spectrofluorometer at 340 nm excitation and 460 nm emission wavelengths, representing the NADH-specific fluorescence spectrum. Furthermore, the in vitro evaluation of the LDHB inhibitor activity was determined as a reverse reaction, which converts lactate to pyruvate by determining the amount of NAD^+ converted to NADH using the above-mentioned spectrophotometric experimental setting (Table 2). Based on this analysis, the half-maximal inhibitory concentration (IC50) of the synthesized compounds was obtained.
In vitro evaluation on LDHA inhibitor activity. LDHA activity assay was performed in accordance with previous studies[16],[18]. Briefly, the various concentrations of compounds were incubated with reaction buffer containing 20 mM HEPES-K^+, 20 μM NADH, 2 mM pyruvate, and 100 ng of purified recombinant human LDHA protein (Abcam, Cambridge, UK). The fluorescence of NADH, which has an excitation wavelength of 340 nm and an emission wavelength of 460 nm, was detected using a microplate spectrofluorometer (Spectramax M2; Molecular Devices, Sunnyvale, CA).

[2] = molecular target: T2, CYP2C19 (Homo sapiens, UniProt P33261); test: CYP isozymes activity assay, CYP2C19; format: in vitro ADME; conditions: microsomes, 0.1 µM
T2 construct: Pooled Human liver microsomes (Sigma-Aldrich; 0.25 mg/mL); tissue Sigma-Aldrich; host or cells: pooled human liver microsomes
Description: (§2) Pooled Human liver microsomes (Sigma-Aldrich; 0.25 mg/mL), 0.1 M phosphate buffer solution (pH 7.4), the five most commonly used substrate cocktails, such as 50 µM phenacetin (CYP1A2), 10 µM diclofenac […], 100 µM S-mephenytoin (CYP2C19) 5 µM dextromethorphan (CYP2D6), and 2.5 µM midazolam (CYP3A4), and compound 10 are pre-incubated at 37 °C for 5 min, then incubated with NADPH generation system solution for 15 min. To finish the enzymatic reaction, an acetonitrile solution (containing terfenadine) is added. The reaction tubes are centrifuged and the supernatant is withdrawn for analysis by LC–MS/MS.

[3] = tested on: human lung cancer A549 cells; test: Cell viability MTT assay, A549; format: cell-based; conditions: A549, MTT, 48 h, read-out: A549 (GI50)
Description: (§3) The human pancreatic cancer cell lines, PANC-1 and MiaPaCa-2, human lung cancer A549 cells, human breast cancer MCF-7, and human glioma U87 cells were obtained from the Korean cell line bank (Seoul, Korea). The cells were cultured in Dulbecco’s Modified Eagle Medium (DMEM; ThermoFisher Scientific, Waltham, MA) supplemented with 10% fetal bovine serum (FBS; Sigma-Aldrich) and 1% penicillin/streptomycin (ThermoFisher Scientific). The cells were cultured at 37 °C in an atmosphere containing 5% CO2.
(§4) The potential cytotoxicity of compounds at different concentrations was evaluated using the MTT assay. Briefly, cancer cell lines were pre-incubated in 96-well plates with compounds for 48 h. Subsequently, MTT working solution (2 mg/mL in phosphate buffer solution) was added to each well and the plate was incubated for 4 h at 37 °C in an atmosphere containing 5% CO2. Then, the conditioned media were aspirated, and the formed formazan crystals in living cells were quantified using the microplate reader (Spectramax M2) at 540 nm. The concentrations that produce 50% cell growth inhibition (GI50) were calculated by curves constructed by the plot of cell survival by an assistant of PRISM software (GraphPad, San Diego, CA).

[4] = tested on: human pancreatic cancer MiaPaCa-2 cells; test: Cell viability MTT assay, MiaPaCa-2; format: cell-based; conditions: MIA PaCa-2, MTT, 48 h, read-out: MiaPaCa-2 (GI50)
Description: as §3, §4

[5] = in vitro; format: in vitro ADME; conditions: rat, microsomes, pH 7.4
Description: (§5) To finish the reaction, an acetonitrile solution (involved in chlorpropamide) is added. The reaction tubes are centrifuged and the supernatant is withdrawn for analysis by LC–MS/MS.

[6] = in vitro; format: in vitro ADME, rat
Description: (§6) Human and rat plasma (Sigma-Aldrich) are incubated at 37 °C with test compounds. During the incubation, aliquots are withdrawn at 0, 30, 120 min time points and acetonitrile solution (containing chlorpropamide) is added. After vortexing, the aliquots are centrifuged and the supernatant is withdrawn for analysis by LC–MS/MS.

[7] = Human liver microsomal stability; format: in vitro ADME; conditions: microsomes, pH 7.4
Description: as §5

[8] = tested on: human breast cancer MCF-7; test: Cell viability MTT assay, MCF-7; format: cell-based; conditions: MCF7, MTT, 48 h, read-out: MCF-7 (GI50)
Description: as §3, §4

[9] = tested on: human glioma U87 cells; test: Cell viability MTT assay, U87; format: cell-based; conditions: U-87 MG, MTT, 48 h, read-out: U87 (GI50)
Description: as §3, §4

[10] = tested on: human pancreatic cancer PANC-1 cells; test: Cell viability MTT assay, PANC-1; format: cell-based; conditions: Homo sapiens, PANC-1; MTT, 48 h; read-out: PANC-1 (GI50)
Description: as §3, §4

[11] = molecular target: T3, purified recombinant human LDHB protein (Homo sapiens, UniProt P07195); test: In vitro LDHB activity assay (NAD+ converted to NADH); format: biochemical; conditions: synthesized compounds; read-out: LDHB IC50
T3 construct: purchased Abcam
Description: as §1
In vitro analysis was determined the amount of NAD^+ converted to NADH[33]. The assay mixture composed of 100 mM Tris–HCl buffer (pH 8.0), 200 mM sodium L-lactate, 2.5 mM NAD^+, and 100 ng of purified recombinant human LDHB protein (Abcam). The fluorescence intensity of NADH was measured using a spectrofluorometer (Spectramax M2) at 340 nm as excitation wavelength and 460 nm as emission wavelength which is the specific fluorescence of NADH.

[12] = molecular target: T4, CYP2C9 (Homo sapiens, UniProt P11712); test: CYP isozymes activity assay, CYP2C9; format: in vitro ADME; conditions: microsomes, 0.1 µM
T4 construct: Pooled Human liver microsomes (Sigma-Aldrich; 0.25 mg/mL); tissue Sigma-Aldrich; host or cells: pooled human liver microsomes
Description: as §2

[13] = molecular target: T5, CYP1A2 (Homo sapiens, UniProt P05177); test: CYP isozymes activity assay, CYP1A2; format: in vitro ADME; conditions: microsomes, 0.1 µM
T5 construct: Pooled Human liver microsomes (Sigma-Aldrich; 0.25 mg/mL); tissue Sigma-Aldrich; host or cells: pooled human liver microsomes
T5 sequence (P05177 1-516): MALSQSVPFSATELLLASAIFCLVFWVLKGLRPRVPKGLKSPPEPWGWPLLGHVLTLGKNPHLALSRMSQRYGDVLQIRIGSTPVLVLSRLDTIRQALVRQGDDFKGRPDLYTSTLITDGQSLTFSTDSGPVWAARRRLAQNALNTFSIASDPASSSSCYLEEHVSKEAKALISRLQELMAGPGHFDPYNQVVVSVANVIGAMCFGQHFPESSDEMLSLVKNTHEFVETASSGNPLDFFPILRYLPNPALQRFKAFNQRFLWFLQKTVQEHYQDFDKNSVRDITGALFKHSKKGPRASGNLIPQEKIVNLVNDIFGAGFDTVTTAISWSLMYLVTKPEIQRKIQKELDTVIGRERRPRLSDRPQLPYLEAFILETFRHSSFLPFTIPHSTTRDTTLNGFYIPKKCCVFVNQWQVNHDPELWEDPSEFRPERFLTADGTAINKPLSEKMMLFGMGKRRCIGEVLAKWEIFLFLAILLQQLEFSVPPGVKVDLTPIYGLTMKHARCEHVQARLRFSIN
Description: as §2

[14] = in vitro; format: in vitro ADME, human
Description: as §6

[15] = molecular target: T6, CYP2D6 (Homo sapiens, UniProt P10635); test: CYP isozymes activity assay, CYP2D6; format: in vitro ADME; conditions: microsomes, 0.1 µM
T6 construct: Pooled Human liver microsomes (Sigma-Aldrich; 0.25 mg/mL); tissue Sigma-Aldrich; host or cells: pooled human liver microsomes
Description: as §2

[16] = molecular target: T7, CYP3A4 (Homo sapiens, UniProt P08684); test: CYP isozymes activity assay, CYP3A4; format: in vitro ADME; conditions: microsomes, 0.1 µM
T7 construct: Pooled Human liver microsomes (Sigma-Aldrich; 0.25 mg/mL); tissue Sigma-Aldrich; host or cells: pooled human liver microsomes
Description: as §2

T3 sequence (P07195 whole entry): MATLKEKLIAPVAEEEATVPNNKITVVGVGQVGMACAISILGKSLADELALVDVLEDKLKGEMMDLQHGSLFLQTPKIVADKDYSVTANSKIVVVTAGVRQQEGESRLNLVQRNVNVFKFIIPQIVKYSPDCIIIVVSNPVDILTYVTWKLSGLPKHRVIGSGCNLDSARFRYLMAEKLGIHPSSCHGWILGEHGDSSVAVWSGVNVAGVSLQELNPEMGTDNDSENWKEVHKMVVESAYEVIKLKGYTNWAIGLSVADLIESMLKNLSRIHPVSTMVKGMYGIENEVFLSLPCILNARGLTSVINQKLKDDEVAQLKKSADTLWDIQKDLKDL
T6 sequence (P10635 whole entry): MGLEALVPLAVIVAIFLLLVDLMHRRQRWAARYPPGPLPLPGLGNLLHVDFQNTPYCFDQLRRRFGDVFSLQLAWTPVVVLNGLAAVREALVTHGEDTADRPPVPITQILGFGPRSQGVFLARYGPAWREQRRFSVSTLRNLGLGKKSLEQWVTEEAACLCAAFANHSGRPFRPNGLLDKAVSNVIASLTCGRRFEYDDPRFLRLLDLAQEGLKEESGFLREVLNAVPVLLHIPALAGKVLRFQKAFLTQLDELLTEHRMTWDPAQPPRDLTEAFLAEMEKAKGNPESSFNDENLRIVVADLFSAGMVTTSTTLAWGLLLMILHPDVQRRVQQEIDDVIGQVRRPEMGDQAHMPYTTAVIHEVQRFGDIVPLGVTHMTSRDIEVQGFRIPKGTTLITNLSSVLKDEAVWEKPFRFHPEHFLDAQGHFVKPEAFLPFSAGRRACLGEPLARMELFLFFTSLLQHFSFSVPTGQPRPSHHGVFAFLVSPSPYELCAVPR
T2 sequence (P33261 whole entry): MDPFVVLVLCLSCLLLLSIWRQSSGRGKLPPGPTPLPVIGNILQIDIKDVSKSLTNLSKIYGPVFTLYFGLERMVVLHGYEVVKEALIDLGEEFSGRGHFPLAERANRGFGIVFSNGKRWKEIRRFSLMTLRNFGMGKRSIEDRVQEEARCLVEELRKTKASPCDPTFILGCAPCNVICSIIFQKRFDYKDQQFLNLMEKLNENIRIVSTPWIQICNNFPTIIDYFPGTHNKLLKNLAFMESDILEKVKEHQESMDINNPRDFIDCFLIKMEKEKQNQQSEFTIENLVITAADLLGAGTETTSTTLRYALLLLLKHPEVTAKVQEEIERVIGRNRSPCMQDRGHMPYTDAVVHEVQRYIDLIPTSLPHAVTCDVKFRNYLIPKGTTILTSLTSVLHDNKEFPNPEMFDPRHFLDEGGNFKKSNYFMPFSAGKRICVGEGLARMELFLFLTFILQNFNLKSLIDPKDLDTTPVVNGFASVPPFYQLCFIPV
T7 sequence (P08684 whole entry): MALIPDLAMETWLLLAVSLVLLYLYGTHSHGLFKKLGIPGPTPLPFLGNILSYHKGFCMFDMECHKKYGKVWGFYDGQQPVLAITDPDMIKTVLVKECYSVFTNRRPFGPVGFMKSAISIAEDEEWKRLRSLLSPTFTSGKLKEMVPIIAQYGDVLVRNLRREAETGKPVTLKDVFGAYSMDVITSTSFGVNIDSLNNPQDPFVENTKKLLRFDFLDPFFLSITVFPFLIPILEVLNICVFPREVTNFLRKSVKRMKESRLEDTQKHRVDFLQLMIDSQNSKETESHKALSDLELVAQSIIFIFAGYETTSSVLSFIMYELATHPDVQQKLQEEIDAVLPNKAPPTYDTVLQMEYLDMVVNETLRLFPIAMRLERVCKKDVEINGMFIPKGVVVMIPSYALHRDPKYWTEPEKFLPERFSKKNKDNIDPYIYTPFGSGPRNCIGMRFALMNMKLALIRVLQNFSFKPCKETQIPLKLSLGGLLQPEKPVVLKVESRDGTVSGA
T4 sequence (P11712 whole entry): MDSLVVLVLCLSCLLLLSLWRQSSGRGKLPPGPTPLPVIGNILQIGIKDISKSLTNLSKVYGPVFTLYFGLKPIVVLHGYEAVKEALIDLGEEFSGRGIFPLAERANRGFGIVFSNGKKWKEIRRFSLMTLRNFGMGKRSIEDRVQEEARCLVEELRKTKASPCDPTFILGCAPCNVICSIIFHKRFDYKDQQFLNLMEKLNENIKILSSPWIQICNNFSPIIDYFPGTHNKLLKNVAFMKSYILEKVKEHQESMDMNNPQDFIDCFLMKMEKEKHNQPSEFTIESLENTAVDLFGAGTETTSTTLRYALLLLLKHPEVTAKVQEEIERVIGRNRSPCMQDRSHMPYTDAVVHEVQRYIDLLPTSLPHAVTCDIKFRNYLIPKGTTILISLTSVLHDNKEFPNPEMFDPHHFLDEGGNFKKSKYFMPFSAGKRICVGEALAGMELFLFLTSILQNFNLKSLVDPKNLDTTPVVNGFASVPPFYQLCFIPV

LDHB/LDHA ([1]; ratio of LDHB IC50 to LDHA IC50 (selectivity)): > 21.18 | pIC50 ([1]; synthesized compounds, read-out: LDHA IC50): 4.33 | CYP2C19 isozyme activity (% of control activity) [2]: 12.1 % of control activity | GI50 [3]: 56.5 µM | GI50 [4]: 88.9 µM | remaining at 0.5 h, 1 µM [5]: 5.2% | plasma stability (in words) [6]: stable | remaining at 0.5 h ([6]; rat, plasma): 93.8% | remaining at 2 h ([6]; rat, plasma): 87.5% | remaining at 0.5 h, 1 µM [7]: 9.5% | GI50 [8]: 61.4 µM | GI50 [9]: 343 µM | GI50 [10]: 12.2 µM | pIC50 [11]: < 3.00 | CYP2C9 isozyme activity (% of control activity) [12]: 97.4 % of control activity | CYP1A2 isozyme activity (% of control activity) [13]: 36.7 % of control activity | plasma stability (in words) [14]: stable | remaining at 0.5 h ([14]; human, plasma): 98.1% | remaining at 2 h ([14]; human, plasma): 91.6% | CYP2D6 isozyme activity (% of control activity) [15]: 95.1 % of control activity | CYP3A4 isozyme activity (% of control activity) [16]: > 100 % of control activity
Structure (SMILES): FC(F)(F)c1ccc(Sc2nc3ccccc3s2)cc1 [Compound 10]

Source: paper PMC7669867, “Synthesis and initial screening of lactate dehydrogenase inhibitor activity of 1,3-benzodioxole derivatives” (Scientific Reports, 2020)
